Assay results taken from article PMC7534258, “Novel temporin L antimicrobial peptides: promoting self-assembling by lipidic tags to tackle superbugs” (Journal of Enzyme Inhibition and Medicinal Chemistry, 2020).
Where a SMILES comes first, the peptide text is derived from it. [ ]: non-standard residue; d: D form. The star is where a group is joined. Phe(4-NH2) = Nc1ccc(C[C@H](N)C(=O)O)cc1; Pentanoyl = CCCCC(=O)*

Tests used:
[1] = system: P. aeruginosa ATCC 27853; assay: Broth microdilution MIC, reference strain; format: cell-based, Pseudomonas aeruginosa
Protocol: (§1) Staphylococcus aureus ATCC 25923, Pseudomonas aeruginosa ATCC 27853 and Klebsiella pneumoniae ATCC BAA-1705 (carbapenemase producer) were obtained from the American Type Culture Collection (Rockville, MD).
(§2) Identification was performed by sub-culturing on Tryptic Soy Agar (TSA, Becton Dickinson) and by biochemical characterisation using the Vitek II system (Biomerieux). The antimicrobial susceptibility testing of all isolates was determined using Vitek II system and results were interpreted according to European Committee on Antimicrobial Susceptibility Testing (EUCAST version 9.0, 2019). P. aeruginosa was cultured in Brain Heart Infusion broth (BHI, OXOID), S. aureus and K. pneumoniae were cultured in Tryptic Soya broth (TSB, OXOID), under aerobic conditions at 37 °C, for 24 h on an orbital shaker at 200 rpm.
(§3) Minimal inhibitory concentrations (MIC) of all the peptides were determined in Mueller–Hinton medium by the broth microdilution assay, following the procedure already described[22]^,[34]. The compounds were added to bacterial suspension in each well yielding a final cell concentration of 1 × 10^6 CFU/ml and a final compound concentration ranging from 0.78 to 100 µM. Negative control wells were set to contain bacteria in Mueller–Hinton broth plus the amount of vehicle (ethanol) used to dilute each compound. Positive controls included vancomycin (2 µg/ml), tobramycin (4 µg/ml), gentamycin (4 µg/ml), and imipenem (8 µg/ml).

[2] = system: K. pneumoniae ATCC BAA-1705; assay: Broth microdilution MIC, reference strain; format: cell-based, Klebsiella pneumoniae
Protocol: as §1, §2, §3

[3] = system: KpCR1; assay: microbe, parasite or virus in culture; conditions: carbapenem-resistant clinical isolate
Protocol: (§4) Clinical strains of P. aeruginosa (Pa1, Pa2 and Pa3), K. pneumoniae (KpCR1, KpCR2 and KpCR3), and S. aureus (Sa1, Sa2 and Sa3) were isolated from bloodstream or pulmonary infections, and belong to a collection of bacterial strains established between 2010 and 2018 at the Department of Molecular Medicine and Medical Biotechnologies (University Federico II, Naples) for research use.
as §2, §3

[4] = system: KpCR2; assay: microbe, parasite or virus in culture; conditions: carbapenem-resistant clinical isolate
Protocol: as §4, §2, §3

[5] = system: KpCR3; assay: microbe, parasite or virus in culture; conditions: carbapenem-resistant clinical isolate
Protocol: as §4, §2, §3

[6] = system: Pa1; assay: microbe, parasite or virus in culture; conditions: multidrug resistant clinical isolate
Protocol: as §4, §2, §3

[7] = system: Pa2; assay: microbe, parasite or virus in culture; conditions: multidrug resistant clinical isolate
Protocol: as §4, §2, §3

[8] = system: Pa3; assay: microbe, parasite or virus in culture; conditions: multidrug resistant clinical isolate
Protocol: as §4, §2, §3

[9] = system: Sa1; assay: microbe, parasite or virus in culture
Protocol: as §4, §2, §3

[10] = system: Sa2; assay: microbe, parasite or virus in culture
Protocol: as §4, §2, §3

[11] = system: Sa3; assay: microbe, parasite or virus in culture; conditions: 24 h
Protocol: as §4, §2, §3

[12] = 90% human serum, 37 ± 1 °C, 200 µM
Protocol: Human serum from human male AB plasma was acquired by Sigma-Aldrich-Merk. Water and MeCN were obtained from commercial suppliers and used without further purification. Analytical RP-UHPLC was performed on a Shimadzu Nexera equipped with a Phenomenex Kinetex column (C18, 4.6 mm x 150 mm, […]) and H2O (0.1% TFA) and MeCN (0.1% TFA) as eluents.
Serum stability was evaluated by modification of elsewhere described methods[37]^,[38]. In particular, the human serum was allocated into a 1.5 ml eppendorf tube and temperature equilibrated at 37 ± 1 °C for 15 min. Peptides 1B, and C were dissolved in sterile water to prepare a stock solution of 2 mM and then mixed with the human serum to make a final concentration of 0.2 mM (90% serum). The resulting reaction solution was incubated at 37 ± 1 °C. Aliquots of the reaction solutions were taken at known time intervals (0, 15, 45, 75, 90, 120 min), subjected to serum proteins precipitation by addition of MeCN (double volume respect to the aliquot). The cloudy reaction sample was cooled (4 °C) for 15 min and then spun at 13000 rpm for 10 min to pellet the precipitated serum proteins. The supernatant was then analysed by RP-UHPLC by using a linear elution gradient from 10 to 90% MeCN (0.1% TFA) in water (0.1% TFA) over 20 min. A flow rate of 1 ml/min was used, absorbance was detected at 220 nm, and the analysis was performed at room temperature.

[13] = ANTS/DPX leakage assay; conditions: ANTS/DPX-loaded LUVs, Gram-positive and Gram-negative mimicking
Protocol: Large unilamellar vesicles (LUVs) and small unilamellar vesicles (SUVs) consisting of DOPG/CL (58/42 ratio in moles) and DOPG/DOPE/CL (63/23/12 ratio in moles), mimic the Gram-positive membrane and Gram-negative membrane, respectively. LUVs were prepared using the extrusion method as previously described. In particular, first lipid films were prepared by dissolving an appropriate amount of lipids in chloroform and fluorescent probes were added when necessary, then dried under a nitrogen gas stream and freeze-dried overnight. In all experiments, we used a final lipid concentration of 0.1 mM. For fluorescence experiments, buffer was added to dry lipid films and vortexed for 1 h; then the lipid suspension was freeze-thawed 6 times and extruded 10 times through polycarbonate membranes with 0.1 µm diameter pores to obtain LUVs. For circular dichroism measurements, peptide samples in SUVs were prepared as reported in the following protocol. Lipids were dissolved in chloroform and added to an equal volume of peptide solution dissolved in TFE containing appropriate peptide concentration. The samples were vortexed and lyophilised overnight. The dry samples were rehydrated with phosphate buffer 5 mM, pH 7.4 for 1 h and sonicated for 30 min.
The ANTS/DPX leakage assay was used to measure the ability of peptide to permeabilise and induce leakage of encapsulated dyes. After lipid films were prepared as previously described, ANTS (12.5 mM) and DPX (45 mM) were dissolved in 2 ml water, were added to lipid films and then lyophilised overnight. The lipid films with encapsulated ANTS and DPX were hydrated with PBS 1X buffer, vortexed for 1 h and then treated to obtain LUVs. The non-encapsulated ANTS and DPX were removed by gel filtration using a Sephadex G-50 column (1.5 cm × 10 cm) at room temperature. To start up the leakage experiment, a 2 mM peptide stock solution was prepared and LUVs were titrated with the peptide. Samples were excited at 385 nm (slit width, 5 nm) and fluorescence emission was recorded at 512 nm (slit width, 5 nm). After the addition of peptide, we evaluated leakage of encapsulated ANTS through a change in fluorescence spectra of ANTS and DPX. In particular, leakage is associated to an increase in ANTS fluorescence at 512 nm. Complete release of ANTS was obtained by using 0.1% Triton X, which caused the total destruction of liposomes. The percentage of leakage was calculated as % leakage =(Fi−F0)/(Ft−F0), where F0 represents the fluorescence of intact LUVs before the addition of peptide, and Fi and Ft denote the intensities of the fluorescence achieved after peptide and Triton-X treatment, respectively.

[14] = 100% growth inhibition after 16–18 h at 37 °C

Row | Compound | Antimicrobial activity (MIC) P. aeruginosa ATCC 27853 ([1]; ATCC 27853) | Antimicrobial activity (MIC) K. pneumoniae ATCC BAA-1705 ([2]; ATCC BAA-1705) | Antimicrobial activity (MIC) KpCR1 [3] | Antimicrobial activity (MIC) KpCR2 [4] | Antimicrobial activity (MIC) KpCR3 [5] | Antimicrobial activity (MIC) Pa1 [6] | Antimicrobial activity (MIC) Pa2 [7] | Antimicrobial activity (MIC) Pa3 [8] | Antimicrobial activity (MIC) Sa1 ([9]; 24 h) | Antimicrobial activity (MIC) Sa2 ([10]; 24 h) | Antimicrobial activity (MIC) Sa3 [11] | start of partial degradation in human serum [12] | time peptide is stable in human serum [12] | membrane leakage ability (in words) [13] | Antimicrobial activity (MIC) P. aeruginosa ATCC 27853 [1, 14] | Antimicrobial activity (MIC) K. pneumoniae ATCC BAA-1705 [2, 14] | Antimicrobial activity (MIC) Sa1 ([9]; MRSA clinical isolate) | Antimicrobial activity (MIC) Sa2 ([10]; MRSA clinical isolate) | proteolytic stability in human serum (in words) ([12]; within 120 min)
1 | CCCCC(=O)Nc1ccc(C[C@H](N)C(=O)N[C@H](C(=O)N2CCC[C@H]2C(=O)N[C@@H](Cc2c[nH]c3ccccc23)C(=O)N[C@@H](Cc2ccccc2)C(=O)N[C@@H](CO)C(=O)N[C@@H](CCCCN)C(=O)N[C@@H](Cc2ccccc2)C(=O)N[C@H](CC(C)C)C(=O)N[C@H](CCCCN)C(=O)N[C@@H](CCCNC(=N)N)C(=O)N[C@H](C(=O)N[C@@H](CC(C)C)C(N)=O)[C@@H](C)CC)C(C)C)cc1 [C, H-Phe(4-NHCO(CH2)3CH3)-Val-Pro-Trp-Phe-Ser-Lys-Phe-DLeu-DLys-Arg-Ile- Leu-NH2] (H-[Phe(4-NH2)](Pentanoyl)VPWFSKF[dL][dK]RIL-NH2) | 25 µM | 6.25 µM | 12.5 µM | 12.5 µM | 12.5 µM | 25 µM | 25 µM | 25 µM | 12.5 µM | 12.5 µM | 12.5 µM | 80 min | up to 1 h | intermediate ability to produce leakage | – | – | – | – | –
2 | CC[C@H](C)[C@H](NC(=O)[C@H](CCCNC(=N)N)NC(=O)[C@@H](CCCCN)NC(=O)[C@@H](CC(C)C)NC(=O)[C@H](Cc1ccccc1)NC(=O)[C@H](CCCCN)NC(=O)[C@H](CO)NC(=O)[C@H](Cc1ccccc1)NC(=O)[C@H](Cc1c[nH]c2ccccc12)NC(=O)[C@@H]1CCCN1C(=O)[C@@H](NC(=O)[C@@H](N)Cc1ccccc1)C(C)C)C(=O)N[C@@H](CC(C)C)C(N)=O [Compound 1B, H-Phe-Val-Pro-Trp-Phe-Ser-Lys-Phe-DLeu-DLys-Arg-Ile-Leu-NH2] (H-FVPWFSKF[dL][dK]RIL-NH2) | – | – | 12.5 µM | 12.5 µM | 12.5 µM | 12.5 µM | 12.5 µM | 12.5 µM | – | – | 6.25 µM | – | – | lowest leakage ability | 12.5 µM | 12.5 µM | 12.5 µM | 12.5 µM | rapidly degraded
